According to US12319655B2, “RAF kinase inhibitors and methods of use thereof” (Deciphera Pharmaceuticals, LLC, priority 2021, dated 2025):

Legend:
[1] = target: B-Raf (V600E) (SEQ. ID NO: 4) kinase (Homo sapiens (Human), UniProt P15056, V600E); assay: Biochemical Assay for B-Raf (V600E) (1); conditions: Table J, BRAF V600E, biochemical assay (1); read-out: BRAF VE (1)
Method in brief: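 Coupled pyruvate kinase/lactate dehydrogenase assay: 0.03 nM B-Raf V600E, 30.1 nM MEK, 1 mM ATP, pH 7.5 Tris/MgCl2 buffer, 1% DMSO. NADH oxidation followed at 340 nm for 6 h at 30 °C; rate from 3–4 h converted to percent inhibition, IC50 by four-parameter fit.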

[2] = test system: WM3928 cells; assay: WM3928 Cell Proliferation Assay (1); type: cell-based
Method in brief: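 IC50 was derived from resazurin fluorescence (ex 540, em 600 nm) after a 6–7 h dye incubation. Before that, cells had 67–72 h of compound exposure at 37 °C, 5% CO2.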

[3] = target: B-Raf kinase (SEQ. ID NO: 2) (Homo sapiens (Human), UniProt P15056); assay: Biochemical Assay for B-Raf (2); conditions: Table J, biochemical assay (2); read-out: BRAF (2)
B-Raf kinase (SEQ. ID NO: 2), sequence (P15056 416-766): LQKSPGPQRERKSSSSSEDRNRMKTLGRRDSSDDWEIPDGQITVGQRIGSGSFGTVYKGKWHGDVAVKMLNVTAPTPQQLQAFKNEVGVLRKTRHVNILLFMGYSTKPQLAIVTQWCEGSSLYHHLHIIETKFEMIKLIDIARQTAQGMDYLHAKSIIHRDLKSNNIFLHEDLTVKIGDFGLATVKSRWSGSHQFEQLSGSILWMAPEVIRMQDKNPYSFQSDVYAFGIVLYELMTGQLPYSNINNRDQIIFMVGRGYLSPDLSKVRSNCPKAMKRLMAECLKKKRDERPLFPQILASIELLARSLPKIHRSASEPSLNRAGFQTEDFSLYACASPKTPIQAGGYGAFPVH
Method: Biochemical Assay for B-Raf (2)
Activity of B-Raf kinase (SEQ. ID NO: 2) was determined spectroscopically using a coupled pyruvate kinase/lactate dehydrogenase assay that continuously monitors the ATP hydrolysis-dependent oxidation of NADH (e.g., Schindler et al., Science, 2000, 289, 1938-1942). Assays were conducted in 384-well plates (25 μL final volume) using 2 nM B-Raf (Sigma), 1.5 units pyruvate kinase, 2.1 units lactate dehydrogenase, 1 mM phosphoenol pyruvate, 0.7 mM NADH, 50 nM MEK (SignalChem), and 1 mM ATP in assay buffer (100 mM Tris, pH 7.5, 15 mM MgCl2, 0.5 mM DTT, 0.1% octyl-glucoside, 0.002% (w/v) BSA, and 0.002% Triton X-100). Inhibition of B-Raf was measured by adding serial diluted test compound (final assay concentration of 1% DMSO). A decrease in absorption at 340 nm was monitored hourly for 4 h at 30° C. on a multi-mode microplate reader (BioTek). The reaction rate was calculated using the 2 to 3 h time frame. The reaction rate at each concentration of compound was converted to percent inhibition using controls (i.e., reaction with no test compound and reaction with a known inhibitor) and IC50 values were calculated by fitting a four-parameter sigmoidal curve to the data using Prism (GraphPad software).

[4] = test system: A375 cells; assay: A375 Cell Proliferation Assay (2); type: cell-based; conditions: Homo sapiens, A-375
Method: A375 Cell Proliferation Assay (2)
A375 cells (catalog (#CRL-1619) are obtained from the American Type Culture Collect (ATTC, Manassas, VA). Briefly, cells were grown in DMEM High Glucose supplemented with 10% characterized fetal bovine serum (Invitrogen, Carlsbad, CA) and 1% Penicillin/Streptomycin/L-Glutamine at 37° C., 5% CO2, and 95% humidity. Cells are expanded until reaching 70-95% confluency at which point they are sub-cultured or harvested for assay use. Using the Beckman Coulter Echo 650, a serial dilution of test compound is dispensed into a 384-well black clear bottom plate in triplicate. Six hundred twenty-five cells are added per well in 50 μL complete growth medium in the 384-well plate. Plates are incubated for 67-72 h at 37° C., 5% CO2, and 95% humidity. At the end of the incubation, 10 μL of a 440 μM solution of resazurin (Sigma, St. Louis, MO) in PBS is added to each well of the plate and plates are incubated for an additional 3-6 h at 37° C., 5% CO2, and 95% humidity. Plates are read on a Synergy2 or equivalent reader (Biotek, Winooski VT) using an excitation of 540 nm and an emission of 600 nm. Data is analyzed using Prism software (GraphPad, San Diego, CA) to calculate IC50 values.

B-Raf (V600E) (SEQ. ID NO: 4) kinase, sequence (P15056 416-766 V600E): as the sequence (P15056 416-766) above, with V185E counted along it

Structure (SMILES)	IC50 [1] [nM]	IC50 [3] [nM]	IC50 [4] [nM]	IC50 [2] [nM]
Cc1ncc(NC(=O)c2ccnc(C(C)(C)C#N)c2)cc1-c1cccc(-c2cnc3ccccn23)c1 [Example 407]	100 to 500	–	–	1000 to 10000
COC(=O)Nc1cc(-c2cnnc(-c3cc(NC(=O)c4cn(C(C)C)nn4)ccc3C)c2)ccn1 [Example 409]	500 to 1000	–	–	1000 to 10000
COC(=O)Nc1cc(-c2cccc(-c3cc(NC(=O)Cn4cc(C(C)C)nn4)cnc3C)c2)ccn1 [Example 415]	1000 to 10000	–	–	1000 to 10000
Cc1ccc(NC(=O)c2cnn(C3CC3)c2)cc1-c1cncc(-c2cc(NC(=O)C3CC3)ncn2)c1 [Example 430]	≤ 100	–	–	≤ 100
Cc1ccc(NC(=O)c2cc(C(C)(C)C)on2)cc1-c1cncc(-c2cc(NC(=O)C3CC3)ncn2)c1 [Example 431]	≤ 100	–	–	≤ 100
Cc1ccc(NC(=O)c2ccnc(C(C)(C)F)c2)cc1-c1cncc(-c2ccnc3c2CC(=O)N3)c1 [Example 432]	≤ 100	–	–	100 to 500
Cc1ncc(NC(=O)c2ccnc(C(C)(C)F)c2)cc1-c1cncc(-c2ccnc(NC(=O)C3CC3)c2)c1 [Example 433]	≤ 100	–	–	≤ 100
Cc1ccc(NC(=O)c2ccnc(C(C)C)c2)cc1-c1cncc(-c2cc(NC(=O)C3CC3)ncn2)c1 [Example 434]	≤ 100	–	–	≤ 100
COC(=O)Nc1cc(-c2cncc(-c3cc(NC(=O)c4ccnc(C(C)(C)F)c4)ccc3C)c2)ccn1 [Example 435]	≤ 100	–	–	≤ 100
Cc1ccc(NC(=O)c2cc(C3CC3)n(C)n2)cc1-c1nccc(-c2ccnc(NC(=O)C3CC3)c2)n1 [Example 436]	≤ 100	–	–	≤ 100
CNC(=O)c1cc(-c2cc(-c3cc(NC(=O)c4ccnc(C(C)(C)C#N)c4)ccc3OC)ccn2)ccn1 [Example 437]	≤ 100	–	–	500 to 1000
COc1ccc(NC(=O)c2ccnc(C(C)(C)C#N)c2)cc1-c1cccc(-c2cc(NC(=O)C3CC3)ncn2)c1 [Example 438]	≤ 100	–	–	≤ 100
CNC(=O)c1cc(-c2cncc(-c3cc(NC(=O)c4ccnc(C(C)(F)F)c4)ccc3C)c2)ncn1 [Example 439]	–	≤ 100	100 to 500	–
CNC(=O)c1cc(-c2cncc(-c3cc(NC(=O)c4ccnc(C(C)(F)F)c4)ccc3C)c2)ccn1 [Example 440]	–	≤ 100	100 to 500	–
CNC(=O)c1cc(-c2cc(-c3cc(NC(=O)c4ccnc(C(C)(F)F)c4)ccc3C)ccn2)ccn1 [Example 441]	–	≤ 100	≤ 100	–
CNC(=O)c1cc(-c2cncc(-c3cc(NC(=O)c4ccnc(C(C)(C)C#N)c4)ccc3C)c2)ccn1 [Example 442]	–	≤ 100	≤ 100	–
CNC(=O)c1cc(-c2cc(-c3cc(NC(=O)c4ccnc(C(C)C)c4)ccc3C)ccn2)ccn1 [Example 443]	–	≤ 100	100 to 500	–
CNC(=O)c1cc(-c2cc(-c3cc(NC(=O)c4ccnc(C(C)(C)F)c4)cnc3C)ccn2)ccn1 [Example 444]	–	100 to 500	100 to 500	–
CNC(=O)c1cc(-c2cncc(-c3cc(NC(=O)c4ccnc(C(C)C)c4)ccc3C)c2)ccn1 [Example 445]	–	≤ 100	100 to 500	–
CNC(=O)c1cc(-c2cncc(-c3cc(NC(=O)c4ccnc(C(C)C)c4)ccc3C)c2)ncn1 [Example 446]	–	≤ 100	100 to 500	–
Cc1ccc(NC(=O)c2ccnc(C(C)(C)F)c2)cc1-c1ccnc(-c2ccnc(C#N)c2)c1 [Example 447]	–	100 to 500	1000 to 10000	–
Cc1ccc(NC(=O)c2ccnc(C(C)(C)F)c2)cc1-c1ccnc(-c2ccnc(C(=O)NCCO)c2)c1 [Example 448]	–	100 to 500	100 to 500	–
CNC(=O)c1cc(-c2cc(-c3cc(NC(=O)c4ccnc(C(C)(C)F)c4)ccc3C)cc(OCCO)n2)ccn1 [Example 449]	–	100 to 500	≤ 100	–

More lines, main results first:

IC50 [1] [nM]	IC50 [3] [nM]	IC50 [4] [nM]	Structure (SMILES)	IC50 [2] [nM]
≤ 100	–	–	COC(=O)Nc1cc(-c2cccc(-c3cc(NC(=O)c4ccnc(C(C)(C)F)c4)cnc3C)c2)ncn1 [Example 404]	100 to 500
≤ 100	–	–	COC(=O)Nc1cc(-c2cncc(-c3cc(NC(=O)c4ccnc(C5(C#N)CC5)c4)ccc3C)c2)ncn1 [Example 405]	≤ 100
≤ 100	–	–	Cc1ncc(NC(=O)c2ccnc(C(C)(C)F)c2)cc1-c1cncc(-c2cc(NC(=O)C3CC3)ncn2)c1 [Example 406]	≤ 100
≤ 100	–	–	CNC(=O)c1cc(-c2cncc(-c3cc(NC(=O)c4ccnc(C(C)(C)F)c4)c(F)cc3C)c2)ccn1 [Example 408]	100 to 500
≤ 100	–	–	Cc1ncc(NC(=O)c2ccnc(C(C)(C)C#N)c2)cc1-c1cncc(-c2cc(NC(=O)C3CC3)ncn2)c1 [Example 410]	≤ 100
≤ 100	–	–	Cc1ccc(NC(=O)c2ccnc(C(C)(C)F)c2)cc1-c1cncc(-c2cc(N)ncn2)c1 [Example 411]	≤ 100
≤ 100	–	–	Cc1ccc(NC(=O)c2cn(C(C)C)nn2)cc1-c1cncc(-c2cc(NC(=O)C3CC3)ncn2)c1 [Example 412]	≤ 100
≤ 100	–	–	CNC(=O)c1cc(-c2cncc(-c3cc(NC(=O)c4ccnc(C(C)(C)F)c4)ccc3C)c2)ccn1 [Example 413]	≤ 100
≤ 100	–	–	COC(=O)Nc1cc(-c2cncc(-c3cc(NC(=O)c4ccnc(C(C)(C)C#N)c4)ccc3C)c2)ncn1 [Example 414]	≤ 100
≤ 100	–	–	COC(=O)Nc1cc(-c2cc(-c3cc(NC(=O)c4ccnc(C(C)(C)F)c4)ccc3C)nc(C)n2)ccn1 [Example 416]	≤ 100
≤ 100	–	–	Cc1ccc(NC(=O)c2ccnc(C(C)(C)F)c2)cc1-c1cncc(-c2ccnc(NC(=O)C3CC3)c2)c1 [Example 417]	≤ 100
≤ 100	–	–	Cc1cc(F)c(NC(=O)c2ccnc(C(C)(C)C#N)c2)cc1-c1cncc(-c2ccnc(NC(=O)C3CC3)c2)c1 [Example 418]	≤ 100
≤ 100	–	–	Cc1ccc(NC(=O)c2ccnc(C(C)(F)F)c2)cc1-c1cncc(-c2cc(NC(=O)C3CC3)ncn2)c1 [Example 419]	≤ 100
≤ 100	–	–	Cc1ccc(NC(=O)c2ccnc(C(C)(C)C#N)c2)cc1-c1cncc(-c2cc(NC(=O)C(C)C)ncn2)c1 [Example 420]	≤ 100
≤ 100	–	–	Cc1ccc(NC(=O)c2cc(C3CC3)on2)cc1-c1cncc(-c2cc(NC(=O)C3CC3)ncn2)c1 [Example 421]	≤ 100
≤ 100	–	–	Cc1ccc(NC(=O)c2ccnc(C(C)(C)C#N)c2)cc1-c1cncc(-c2cc(N)ncn2)c1 [Example 422]	100 to 500
≤ 100	–	–	Cc1cc(F)c(NC(=O)c2ccnc(C(C)(C)F)c2)cc1-c1cncc(-c2cc(NC(=O)C3CC3)ncn2)c1 [Example 423]	≤ 100
≤ 100	–	–	Cc1cc(F)c(NC(=O)c2ccnc(C(C)(C)C#N)c2)cc1-c1cncc(-c2cc(NC(=O)C3CC3)ncn2)c1 [Example 424]	≤ 100
≤ 100	–	–	COC(=O)Nc1cc(-c2cncc(-c3cc(NC(=O)c4ccnc(C(C)(C)F)c4)ccc3C)c2)ncn1 [Example 425]	≤ 100
≤ 100	–	–	CNC(=O)c1cc(-c2nccc(-c3cc(NC(=O)c4ccnc(C(C)(C)F)c4)c(F)cc3C)n2)ccn1 [Example 427]	≤ 100
≤ 100	–	–	CNC(=O)c1cc(-c2cc(-c3cc(NC(=O)c4ccnc(C(C)(C)F)c4)ccc3C)nc(C)n2)ccn1 [Example 428]	100 to 500
≤ 100	–	–	Cc1ccc(NC(=O)c2ccnc(C(F)F)c2)cc1-c1cncc(-c2cc(NC(=O)C3CC3)ncn2)c1 [Example 429]	≤ 100
